pIC50: −log10 of the molar value.

IC50 data for four compounds are collected here from US20090312377A1, “DERIVATIVES OF BENZO[D]ISOTHIAZOLES AS HISTONES DEACETYLASE INHIBITORS” (UNIVERSIDAD DE GRANADA, priority 2006, published 2009).

This assay has as its system HDAC (HeLa nuclear extract, rich in HDAC activity). Put plainly: HDAC AK-501 colorimetric (Color de Lys) inhibition assay with HeLa nuclear extract. The note with it: Color de Lys substrate 0.2 mM final, 20 minutes at 37° C., reading at 405 nm, from straight line of 5 concentrations. The class given is biochemical, human. Here is the method:
The inhibitory activity of the compounds obtained in the previous Examples 1, 2, 3 and 5 was evaluated, for which the HDAC AK-501 colorimetric titration kit for inhibition, supplied by Biomol, was used, following the indicated protocol.
The process of the assay was carried out in two steps. In the first step, the Color de Lys® substrate, containing an acetylated lysine group, was incubated with a sample of HeLa (human cervical cancer cell line) nuclear extract, rich in HDAC activity. In the second step, the previous mixture was treated with the Color de Lys® developer, which caused an increase in the quantifiable color intensity at 405 nm. There is a linear correlation between the absorption and the deacetylation of lysine within instrumental limits. The addition of an HDAC inhibitor gives rise to a lower deacetylation of the Color de Lys® substrate and to a decrease in the intensity at 405 nm.
The operating procedure was the following: • 1. The buffer, diluted (250 nM) TSA (Trichostatin A) and the inhibitor to be assayed were added at the desired concentrations in the suitable wells of the plate (See Table below). • 2. The Hela extract was added, except to the enzyme-free control. • 3. The plate and the Color de Lys® substrate were thermostatted at 37° C. • 4. The reactions were started adding the 0.4 mM substrate (final concentration of the substrate 0.2 mM) in each well and it was stirred. • 5. A reaction time of 20 minutes at 37° C. was allowed. • 6. The Color de Lys® developer, prepared approximately 30 minutes before its use, was added (the developer was used diluted 20 times with an amount of TSA resulting in a final concentration of 1 μM in the assay). It was allowed to react for 15 minutes at 37° C. • 7. The reading was made at 405 nm.
(×5) and (×2) indicate the dilution factors.
The result of the reading using 5 different concentrations taken between 0.1-2.0 mM of each inhibitor allowed obtaining a straight line of concentrations versus enzymatic activity. The concentration necessary to deduce the 50% enzymatic activity (IC50) was calculated from the equation of said line.
What is called pIC50 is the IC50 on a negative log10 scale, so that one unit is a factor of ten. The compound `O=C(CCCCCCN1C(=O)c2ccccc2S1(=O)=O)NO` [Compound 2, 7-(1,1-dioxide-3-oxo-2H-benzo[d]isothiazol-2-yl)-N-hydroxyheptanamide] showed a pIC50 of 6.60.

As to `O=C(NO)c1ccc(CN2C(=O)c3ccccc3S2(=O)=O)cc1` [Compound 3, 4-[(1,1-dioxide-3-oxo-2H-benzo[d]isothiazol-2-yl)methyl]-N-hydroxybenzamide], the pIC50 is 5.94.

Consider `O=C(CCCCCOc1nsc2ccccc12)NO` [Compound 5, 6-[(benzo[d]isothiazol-3-yl)oxa]-N-hydroxyhexanamide], for which the pIC50 is 6.68.

For `O=C(CCCCCN1C(=O)c2ccccc2S1(=O)=O)NO` [Compound 1, 6-(1,1-dioxide-3-oxo-2H-benzo[d]isothiazol-2-yl)-N-hydroxyhexanamide], the pIC50 was 5.82.
